Where “and” joins values, the source holds several entries; their conditions need not be identical. Equal values may be shown once.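 Step 1: Grow cells in 96-well plates. Step 2: Expose to compound for 48 hours at 5 concentrations. Step 3: Interpolate endpoints linearly; if unreached, use highest concentration. Abbreviation: GI50, concentration required for 50% inhibition of growth. TGI marks complete inhibition of growth.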
Legend:
Experiment in all cases: NCI anticancer screen, dose series, 48 h
DU-145 prostate = tested on: DU-145 prostate
MCF7 breast = tested on: MCF7 breast
MDA-MB-231 breast = tested on: MDA-MB-231 breast
MDA-MB-435 = tested on: MDA-MB-435
NCI/ADR-RES ovarian = tested on: NCI/ADR-RES ovarian
PC-3 prostate = tested on: PC-3 prostate
BT-549 breast = tested on: BT-549 breast

Row | Compound | GI50 (DU-145 prostate) | TGI (DU-145 prostate) | GI50 (MCF7 breast) | TGI (MCF7 breast) | GI50 (MDA-MB-231 breast) | TGI (MDA-MB-231 breast) | GI50 (MDA-MB-435) | TGI (MDA-MB-435) | GI50 (NCI/ADR-RES ovarian) | TGI (NCI/ADR-RES ovarian) | GI50 (PC-3 prostate) | TGI (PC-3 prostate) | GI50 (BT-549 breast) | TGI (BT-549 breast)
1 | NC(=O)c1ccc(-c2c3ccccc3cc3c2ccc2ccccc23)cc1 | 4.4 µM | 26.2 µM | 1880 nM | 11.6 µM | 3.91 µM | 23.8 µM | 0.382 µM | 3.51 µM | 1.65 µM | 18.1 µM | 4.88 µM | 24.5 µM | – | –
2 | O=C(N/N=C\c1cc(Cl)ccc1O)N/N=C/c1cc(Cl)ccc1O | > 100 µM | > 100 µM | 3120 nM | > 100 µM | 4.3 µM | > 100 µM | 1.36 µM | > 100 µM | 2.48 µM | > 100 µM | 2.96 µM | > 100 µM | > 100 µM | > 100 µM
3 | CC(=O)OCC1OC(O[C@@H]2C[C@H]3C(C)(C)[C@H](OC(C)=O)CC[C@]3(C)[C@H]3CC[C@@H]4[C@]5(CC[C@@]4(C)[C@@]32C)O[C@@H]([C@H](O)C(C)(C)O)C[C@@H]5C)C(O)C(O)C1O (stereo partly specified) | 10.6 µM | 22.8 µM | 1060 nM | 6.03 µM | 10.2 µM | 22.3 µM | 8.36 µM | 22.4 µM | 16.4 µM | 31.1 µM | 3.84 µM | 14.3 µM | 12.1 µM | 24.5 µM
4 | CCNC1=CC(=O)c2ncccc2C1=O | 1.18 µM | 2.44 µM | 1170 nM | 3.2 µM | 2.66 µM | 21.1 µM | 0.4 µM | 1.5 µM | 3.75 µM | 28.2 µM | 2.71 µM | 22.8 µM | 1.54 µM | 3.15 µM
5 | Nc1ccccc1C#Cc1ccccc1C#CCCCCO | 28.2 µM | > 100 µM | 60800 nM | > 100 µM | 16.2 µM | 37 µM | 10.3 µM | 53.9 µM | 14.4 µM | 39.4 µM | 27.8 µM | 99.4 µM | 23.2 µM | 76.5 µM
6 | COc1cc([N+](=O)[O-])c2ncccc2c1O | 2.32 µM | 5.73 µM | 2960 nM | > 100 µM | 26.1 µM | > 100 µM | 3.53 µM | 14.8 µM | 13.3 µM | 86.9 µM | 6.54 µM | > 100 µM | 21.2 µM | 87.3 µM
7 | COCCOC(=O)CCn1cc(F)c(=O)[nH]c1=O | 5.57 µg/mL | > 150 µg/mL | 1.13 µg/mL | > 150 µg/mL | > 150 µg/mL | > 150 µg/mL | 5.67 µg/mL | > 150 µg/mL | 46.4 µg/mL | > 150 µg/mL | 108 µg/mL | > 150 µg/mL | 16.2 µg/mL | > 150 µg/mL
8 | O=C(O)c1c(Cl)c(Cl)c(Cl)c(Cl)c1-c1c2cc(I)c(=O)c(I)c-2oc2c(I)c(O)c(I)cc12 | 37.2 µM | 94.3 µM | 83500 nM | > 200 µM | 22.5 µM and 26.7 µM | 82.8 µM and 75.5 µM | 62.9 µM and 41.4 µM | 93 µM | > 200 µM | > 200 µM | 39.8 µM and 42.3 µM | 89.3 µM | 26.9 µM and 35.9 µM | 82.6 µM and 83.2 µM
9 | Fc1cc(Nc2ccc3c(OCCCN4CCOCC4)cccc3n2)ccc1Cl | 3.62 µM | 13.1 µM | – | – | – | – | 2.05 µM | 4.83 µM | 3.09 µM | 11.2 µM | 2.08 µM | 5.83 µM | 5.16 µM | 18.7 µM
10 | NC(=NC1C2CC3CC(C2)CC1C3)Nc1ccc(I)cc1 (stereo unspecified) | 3.66 µM | 12.6 µM | 2450 nM | 10.7 µM | 3.31 µM | 11 µM | 3.8 µM | 13.6 µM | 4.59 µM | 17.1 µM | 3.14 µM | 12.2 µM | 3.33 µM | 12.8 µM
11 | NC(=O)c1ccc(NC(=O)c2oc3ccccc3c2-c2cnn(-c3ccccc3)c2)cc1 | – | – | > 100000 nM | > 100 µM | 4.65 µM | > 100 µM | > 100 µM | > 100 µM | – | – | – | – | 3.51 µM | > 100 µM
12 | O=C1CCC(c2ccccc2)(c2ccccc2)CC1 | – | > 100 µM | – | > 100 µM | – | > 100 µM | – | > 100 µM | – | > 100 µM | – | > 100 µM | – | > 100 µM
13 | C/C(=N\n1c(N)c(C#N)c(-c2ccc(Cl)cc2)c(C#N)c1=O)c1cccnc1 | > 100 µM | > 100 µM | > 100000 nM | > 100 µM | > 100 µM | > 100 µM | > 100 µM | > 100 µM | > 100 µM | > 100 µM | > 100 µM | > 100 µM | – | –
14 | COc1cc(Nc2ncc(-c3ccccc3)o2)cc(OC)c1OC | 5.98 µM | > 25 µM | 69.5 nM | > 25 µM | 2.5 µM | > 25 µM | 0.154 µM | > 5.89 µM | 1.38 µM | > 25 µM | 7.3 µM | > 25 µM | 3.24 µM | > 25 µM
15 | O=C(O)CCN1C(=O)/C(=C/C(Cl)=C/c2ccccc2)SC1=S | 3.14 µM | 12.4 µM | 1980 nM | 13.1 µM | 3.38 µM | 11 µM | 2.95 µM | 11.6 µM | 2.6 µM | 9.59 µM | 2.87 µM | 11.4 µM | 2.14 µM | 6.27 µM
16 | CC(Cl)CC(=O)Nc1ccc2c(c1)oc(=O)c1cc(NC(=O)CC(C)Cl)ccc12 (stereo unspecified) | 15.1 µM | 34.1 µM | 7900 nM | 23.1 µM | 1.98 µM | 23.7 µM | 18.3 µM | > 100 µM | 12.4 µM | 51 µM | 12.4 µM | 27.7 µM | 22.1 µM | 53.3 µM
17 | C=C(C)[C@@H]1CC[C@]2(C#N)CC[C@]3(C)[C@H](CC[C@@H]4[C@@]5(C)CCCNC(C)(C)[C@@H]5CC[C@]43C)[C@@H]12 | 1.85 µM | 3.48 µM | 1530 nM | 2.91 µM | 1.84 µM | 3.38 µM | 1.92 µM | 3.78 µM | 1.89 µM | 3.63 µM | 2.7 µM | 10.7 µM | 1.75 µM | 3.42 µM
18 | CCOc1ccc(N2C(N)=NC(N)=NC2(C)C)cc1 | 71.9 µM | > 100 µM | > 100000 nM | > 100 µM | > 100 µM | > 100 µM | 38.8 µM | > 100 µM | > 100 µM | > 100 µM | 45.7 µM | > 100 µM | 84.3 µM | > 100 µM

— PubChem BioAssay (NCI)
